Measured values: PubChem BioAssay (NCI)
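Growth conditions: 96-well plates. Treatment: test compound, 48 hours, 5 concentrations. Analysis: linear interpolation between bracketing concentrations; unreached endpoints set to highest concentration. Definition used: TGI = concentration required for complete inhibition of growth.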

Key:
Assay in all cases: NCI tumour cell line growth inhibition, 48 h
MALME-3M melanoma = system: MALME-3M melanoma
K-562 leukemia = system: K-562 leukemia
HOP-18 NSCLC = system: HOP-18 NSCLC
UO-31 renal = system: UO-31 renal
SW-620 colon = system: SW-620 colon
DMS 114 small cell lung = system: DMS 114 small cell lung
LXFL 529 NSCLC = system: LXFL 529 NSCLC
COLO 205 colon = system: COLO 205 colon
KM12 colon = system: KM12 colon
NCI-H460 lung = system: NCI-H460 lung
HOP-62 NSCLC = system: HOP-62 NSCLC
SK-MEL-2 melanoma = system: SK-MEL-2 melanoma
NCI-H226 lung = system: NCI-H226 lung
SK-MEL-28 melanoma = system: SK-MEL-28 melanoma
SK-OV-3 ovarian = system: SK-OV-3 ovarian
HL-60(TB) leukemia = system: HL-60(TB) leukemia
SNB-19 CNS = system: SNB-19 CNS
RPMI-8226 leukemia = system: RPMI-8226 leukemia
SNB-78 CNS = system: SNB-78 CNS
DLD-1 colon = system: DLD-1 colon
NCI-H522 lung = system: NCI-H522 lung
DMS 273 small cell lung = system: DMS 273 small cell lung
UACC-62 melanoma = system: UACC-62 melanoma
RXF 393 renal = system: RXF 393 renal
UACC-257 melanoma = system: UACC-257 melanoma
SN12C renal = system: SN12C renal
HCT-15 colon = system: HCT-15 colon
HCT-116 colon = system: HCT-116 colon
NCI-H23 lung = system: NCI-H23 lung
HCC-2998 colon = system: HCC-2998 colon
HOP-92 NSCLC = system: HOP-92 NSCLC
OVCAR-4 ovarian = system: OVCAR-4 ovarian
786-0 renal = system: 786-0 renal
M14 melanoma = system: M14 melanoma
TK-10 renal = system: TK-10 renal
OVCAR-8 ovarian = system: OVCAR-8 ovarian
CCRF-CEM leukemia = system: CCRF-CEM leukemia
HT29 colon = system: HT29 colon
A498 renal = system: A498 renal
U251 CNS = system: U251 CNS
M19-MEL melanoma = system: M19-MEL melanoma
CAKI-1 renal = system: CAKI-1 renal
SF-295 CNS = system: SF-295 CNS
SF-268 CNS = system: SF-268 CNS
SF-539 CNS = system: SF-539 CNS
IGROV1 ovarian = system: IGROV1 ovarian
MOLT-4 leukemia = system: MOLT-4 leukemia
SNB-75 CNS = system: SNB-75 CNS
SK-MEL-5 melanoma = system: SK-MEL-5 melanoma
KM20L2 colon = system: KM20L2 colon
ACHN renal = system: ACHN renal
OVCAR-5 ovarian = system: OVCAR-5 ovarian
A549 NSCLC = system: A549 NSCLC
EKVX NSCLC = system: EKVX NSCLC

Measured: TGI

CCC1=C(C(C)=O)[C@@H]2CCCCC(C(=O)OC)[C@@H]2C1=O (some centres undefined)
> 100 µM: MALME-3M melanoma | K-562 leukemia | HOP-18 NSCLC | UO-31 renal | SW-620 colon | DMS 114 small cell lung | LXFL 529 NSCLC | COLO 205 colon | KM12 colon | NCI-H460 lung | HOP-62 NSCLC | SK-MEL-2 melanoma | NCI-H226 lung | SK-MEL-28 melanoma | SK-OV-3 ovarian | HL-60(TB) leukemia | SNB-19 CNS | RPMI-8226 leukemia | SNB-78 CNS | DLD-1 colon | NCI-H522 lung | DMS 273 small cell lung | UACC-62 melanoma | RXF 393 renal | UACC-257 melanoma | SN12C renal | HCT-15 colon | HCT-116 colon | NCI-H23 lung | HCC-2998 colon | HOP-92 NSCLC | OVCAR-4 ovarian | 786-0 renal | M14 melanoma | TK-10 renal | OVCAR-8 ovarian | CCRF-CEM leukemia | HT29 colon | A498 renal | U251 CNS | M19-MEL melanoma | CAKI-1 renal | SF-295 CNS | SF-268 CNS | SF-539 CNS | IGROV1 ovarian | MOLT-4 leukemia | SNB-75 CNS | SK-MEL-5 melanoma | KM20L2 colon | ACHN renal | OVCAR-5 ovarian | A549 NSCLC | EKVX NSCLC
